Columns and labels:
[1] = target: T1, ATP-dependent translocase ABCB1 (Homo sapiens, UniProt P08183); assay: TP_TRANSPORTER: increase in Doxorubicin intracellular accumulation (Doxorubicin: […], Megestrol acetate: 50 uM) in HCT-116/VM46 cells, flow cytometry; format: functional, cell-based; settings: hct-116/vm46, 50 µM
[2] = target: T1, ATP-dependent translocase ABCB1; assay: TP_TRANSPORTER: increase in Doxorubicin intracellular accumulation (Doxorubicin: […], Megestrol acetate: 25 uM) in MCF-7/ADR cells, flow cytometry; format: functional, cell-based; settings: nci/adr-res

T1 sequence (P08183 whole entry): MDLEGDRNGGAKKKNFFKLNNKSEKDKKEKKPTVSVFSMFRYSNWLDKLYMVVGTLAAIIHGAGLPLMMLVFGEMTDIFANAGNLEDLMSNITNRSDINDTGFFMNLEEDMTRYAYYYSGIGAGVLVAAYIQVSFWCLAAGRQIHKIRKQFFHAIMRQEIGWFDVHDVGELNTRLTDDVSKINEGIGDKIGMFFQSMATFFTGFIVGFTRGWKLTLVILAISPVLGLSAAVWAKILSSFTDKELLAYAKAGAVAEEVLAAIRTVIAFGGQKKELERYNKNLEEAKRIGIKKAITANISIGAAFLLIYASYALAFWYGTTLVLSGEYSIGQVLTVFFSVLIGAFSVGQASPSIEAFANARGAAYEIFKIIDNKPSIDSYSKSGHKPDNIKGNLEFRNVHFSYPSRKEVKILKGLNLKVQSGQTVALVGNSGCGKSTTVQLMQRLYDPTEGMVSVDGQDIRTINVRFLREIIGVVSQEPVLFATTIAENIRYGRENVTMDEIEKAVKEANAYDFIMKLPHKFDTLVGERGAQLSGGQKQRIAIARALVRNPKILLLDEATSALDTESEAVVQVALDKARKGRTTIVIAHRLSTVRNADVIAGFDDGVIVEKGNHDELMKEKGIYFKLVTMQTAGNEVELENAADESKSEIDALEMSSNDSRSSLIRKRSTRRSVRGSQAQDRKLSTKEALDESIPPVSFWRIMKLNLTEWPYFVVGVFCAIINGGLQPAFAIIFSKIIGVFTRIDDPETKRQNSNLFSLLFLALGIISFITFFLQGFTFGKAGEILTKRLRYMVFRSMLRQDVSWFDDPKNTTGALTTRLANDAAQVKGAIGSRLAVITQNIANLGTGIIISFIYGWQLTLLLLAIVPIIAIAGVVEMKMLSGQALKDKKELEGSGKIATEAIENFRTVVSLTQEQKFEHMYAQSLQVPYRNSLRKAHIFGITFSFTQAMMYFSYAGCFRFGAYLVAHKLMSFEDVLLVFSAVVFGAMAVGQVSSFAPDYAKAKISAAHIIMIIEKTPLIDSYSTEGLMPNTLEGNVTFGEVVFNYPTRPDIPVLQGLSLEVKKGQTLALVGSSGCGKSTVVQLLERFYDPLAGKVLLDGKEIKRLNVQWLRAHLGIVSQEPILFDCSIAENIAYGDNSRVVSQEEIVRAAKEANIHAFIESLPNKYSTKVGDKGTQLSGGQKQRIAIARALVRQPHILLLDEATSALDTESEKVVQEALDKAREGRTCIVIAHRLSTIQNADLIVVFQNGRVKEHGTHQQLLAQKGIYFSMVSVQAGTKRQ

Activity [1]: inhibitor [+]
Activity [2]: inhibitor [+]
Compound: CC(=O)O[C@]1(C(C)=O)CC[C@H]2[C@@H]3C=C(C)C4=CC(=O)CC[C@]4(C)[C@H]3CC[C@@]21C [MEGESTROL ACETATE]

From ChEMBL document CHEMBL2074353, “Reversal of the human and murine multidrug-resistance phenotype with megestrol acetate” (Cancer Chemother Pharmacol, 1994)
